Laboratory results taken from article PMC3014912 (Journal of molecular modeling, 2010).

Molecular target: T1, human carboxylesterase 1 (hCE1) (Homo sapiens, UniProt P23141)
T1 sequence (P23141 18-567): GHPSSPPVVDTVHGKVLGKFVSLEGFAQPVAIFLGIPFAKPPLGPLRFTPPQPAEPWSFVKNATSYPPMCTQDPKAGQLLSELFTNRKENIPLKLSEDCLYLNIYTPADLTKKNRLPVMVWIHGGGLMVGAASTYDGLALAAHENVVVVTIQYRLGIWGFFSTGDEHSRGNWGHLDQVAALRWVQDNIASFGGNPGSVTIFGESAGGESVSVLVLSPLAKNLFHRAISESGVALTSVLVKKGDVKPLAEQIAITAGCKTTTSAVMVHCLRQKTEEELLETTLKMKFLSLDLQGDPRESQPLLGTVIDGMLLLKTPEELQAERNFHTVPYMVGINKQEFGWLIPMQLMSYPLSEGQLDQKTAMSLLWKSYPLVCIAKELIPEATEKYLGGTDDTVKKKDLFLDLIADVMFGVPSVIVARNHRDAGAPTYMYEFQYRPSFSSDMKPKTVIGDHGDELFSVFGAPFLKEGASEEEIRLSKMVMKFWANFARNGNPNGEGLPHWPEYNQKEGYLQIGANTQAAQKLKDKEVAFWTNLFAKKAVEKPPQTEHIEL
Test: hCE1 inhibition, p-nitrophenyl acetate hydrolysis
Type: biochemical

CCCCCCCCOCC(=O)C(F)(F)F [Compound 4, 1,1,1-trifluoro-3-octyloxypropan-2-one]
IC50: 0.02 µM

CCCCCCCCCCC(C)=O [Compound 9, 2-dodecanone, reference compound]
IC50: > 1000 µM
